Data on 18 compounds can be found in US11976083B2, “Inhibitors of peptidylarginine deiminases” (Gilead Sciences, Inc., priority 2020, dated 2024).

The target in this experiment is T1, human PAD4 (Homo sapiens, UniProt Q9UM07).
T1 construct: human PAD4 (NM_012387), A2-P663, was PCR amplified; His-SUMO (N, cleaved yes); made in house; host or cells: E. coli BL21(DE3)
Briefly: In vitro PAD4 BAEE biochemical assay. The following applies: BAEE substrate 3 mM, 5 nM PAD4, 2 mM calcium chloride; geometric mean of multiple experiments. Put shortly:
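Assay was run at 25 °C using 3 mM BAEE and 5 nM human PAD4 after a 30 min compound preincubation; ammonia produced over 2 h was quantified by OPA-derived fluorescence. Full inhibition was defined by 50 µM BB-Cl-Amidine, and IC50 came from variable-slope nonlinear regression.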

Each structure is given as a SMILES string.

T1 sequence (Q9UM07 2-663): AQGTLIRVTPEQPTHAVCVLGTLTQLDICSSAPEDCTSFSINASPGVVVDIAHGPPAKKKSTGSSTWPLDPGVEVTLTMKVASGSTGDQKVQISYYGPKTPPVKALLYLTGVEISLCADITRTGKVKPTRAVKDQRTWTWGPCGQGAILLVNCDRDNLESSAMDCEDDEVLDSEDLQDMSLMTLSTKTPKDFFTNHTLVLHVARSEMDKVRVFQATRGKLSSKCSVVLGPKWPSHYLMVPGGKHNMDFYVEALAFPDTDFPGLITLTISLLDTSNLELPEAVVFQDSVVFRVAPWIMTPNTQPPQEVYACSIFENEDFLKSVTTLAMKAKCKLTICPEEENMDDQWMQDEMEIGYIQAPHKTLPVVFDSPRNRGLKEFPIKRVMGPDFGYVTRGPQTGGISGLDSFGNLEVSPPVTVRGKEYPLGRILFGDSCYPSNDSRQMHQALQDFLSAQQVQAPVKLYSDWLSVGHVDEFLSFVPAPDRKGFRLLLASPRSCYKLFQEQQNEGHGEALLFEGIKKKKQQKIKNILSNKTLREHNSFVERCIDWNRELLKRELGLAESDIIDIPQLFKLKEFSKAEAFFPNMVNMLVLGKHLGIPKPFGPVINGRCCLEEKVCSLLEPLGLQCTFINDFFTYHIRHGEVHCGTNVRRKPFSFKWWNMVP

For `CO[C@@H]1CCN(C(=O)c2cc3nc(-c4cc5ccc6nc5n4CCCCC[C@@H]4C[C@H]4C(=O)N[C@@H]6C)n([C@H]4C[C@H]4F)c3cc2F)C[C@@H]1N` [Example 827, (2~{R},5~{R},7~{R})-14-[5-[(3~{S},4~{R})-3-amino-4-methoxy-piperidine-1-carbonyl]-6-fluoro-1-[(1~{S},2~{R})-2-fluorocyclopropyl]benzimidazol-2-yl]-2-methyl-3,13,19-triazatetracyclo[11.5.2.0^ {5,7}.0^{16,20}]icosa-1(19),14,16(20),17-tetraen-4-one], the IC50 stood at 36 nM. The value for `COc1cc(C(=O)N[C@H]2CNCCC2(F)F)cc2nc(-c3cc4ccc5nc4n3CCC/C=C/c3ccccc3C(=O)N[C@@H]5C)n(C)c12` [Example 495, ~{N}-[(3~{S})-4,4-difluoro-3-piperidyl]-7-methoxy-1-methyl-2-[(2~{R},11~{E})-2-methyl-4-oxo-3,16,22-triazatetracyclo[14.5.2.0^ {5,10}.0^{19,23}]tricosa-1(22),5(10),6,8,11, 17,19(23),20-octaen-17-yl] benzimidazole-5-carboxamide] was 518 nM; that for `COc1cc(C(=O)N2CCC[C@@H](N)C2)cc2nc(-c3cc4ccc5cc4n3CCCOC[C@H]3C[C@H]3C(=O)N[C@@H]5C)n(C)c12` [Example 307, (2~{R},5~{R},7~{S})-14-[5-[(3~{R})-3-aminopiperidine-1-carbonyl]-7-methoxy-1-methyl-benzimidazol-2-yl]-2-methyl-9-oxa-3,13-diazatetracyclo[11.5.2.0^{5,7}.0^{16,20}] icosa-1(19),14,16(20),17-tetraen-4-one] was 82 nM. Regarding `COc1cc(C(=O)N2[C@H]3CC[C@@H]2[C@H](N)C3)cc2nc(-c3cc4ccc5nc4n3CCCCCC(C)(C)C(=O)N[C@@H]5C)c(C)n12` [Example 126, (10~{R})-16-[7-[(1~{R},2~{R},4~{S})-2-amino-7-azabicyclo[2.2.1]heptane-7-carbonyl]-5-methoxy-3-methyl-imidazo[1,2-a]pyridin-2-yl]-7,7,10-trimethyl-1,9,18-triazatricyclo[9.5.2.0^{14,17}]octadeca-11(18),12,14(17),15-tetraen-8-one], the IC50 amounted to 25 nM. On to `COc1cc(C(=O)N2[C@H]3CC[C@@H]2[C@H](N)C3)cc2nc(-c3cc4ccc5nc4n3C/C=C\CCCCC(=O)N[C@@H]5C)c(C)n12` [Example 123, (3~{2},11~{R})-17-[7-[(1~{R},2~{R},4~{S})-2-amino-7-azabicyclo[2.2.1]heptane-7-carbonyl]-5-methoxy-3-methyl-imidazo[1,2-a]pyridin-2-yl]-11-methyl-1,10,19-triazatricyclo[10.5.2.0^{15,18}]nonadeca-3,12(19),13,15(18),16-pentaen-9-one], for which the half-maximal inhibitory concentration (IC50) was determined as 12 nM. With `C[C@H]1NC(=O)C(C)(C)CCCCCCn2c(-c3nc4cc(C(=O)N[C@H]5CNCC[C@@H]5F)ccc4n3C3CC3)cc3ccc1nc32` [Example 376, 1-cyclopropyl-~{N}-[(3~{S},4~{S})-4-fluoro-3-piperidyl]-2-[(11~{R})-8,8,11-trimethyl-9-oxo-1,10,19-triazatricyclo[10.5.2.0^{15,18}]nonadeca-12(19),13,15(18),16-tetraen-17-yl]benzimidazole-5-carboxamide] the figure was 82 nM. With `COc1cc(C(=O)N2CC[C@@H](OC)[C@@H](N)C2)cc2nc(-c3cc4ccc5nc4n3CC(F)(F)CCCC[C@@](C)(C(F)(F)F)C(=O)N[C@@H]5C)n(C)c12` [Example 727, (8~{R},11~{R})-17-[5-[(3~{S), 4~{R})-3-amino-4-methoxy-piperidine-1-carbonyl]-7-methoxy-1-methyl-benzimidazol-2-yl]-3,3-difluoro-8,11-dimethyl-8-(trifluoromethyl)-1,10,19-triazatricyclo[10.5.2.0^ {15,18}]nonadeca-12(19),13,15(18),16-tetraen-9-one] the figure was 93 nM.

As to `COc1cc(C(=O)N[C@@H]2CNC[C@@H]2F)cc2nc(-c3cc4ccc5nc4n3CCCCCCC(C)(C)C(=O)N[C@@H]5C)n(C)c12` [Example 198, ~{N}-[(3~{R},4~{S})-4-fluoropyrrolidin-3-yl]-7-methoxy-1-methyl-2-[(11~{R})-8,8,11-trimethyl-9-oxo-1,10,19-triazatricyclo[10.5.2.0^{15,18}]nonadeca-12(19),13,15(18),16-tetraen-17-yl]benzimidazole-5-carboxamide], the IC50 stood at 5960 nM.

As to `COc1cc(C(=O)N2CC[C@@H](OCC3CC3)[C@@H](N)C2)cc2nc(-c3cc4ccc5nc4n3CCCCC[C@@H]3C[C@H]3C(=O)N[C@@H]5C)n(C)c12` [Example 490, (2~{R},5~{R},7~{R})-14-[5-[(3~{S},4~{R})-3-amino-4-(cyclopropylmethoxy)piperidine-1-carbonyl]-7-methoxy-1-methyl-benzimidazol-2-yl]-2-methyl-3,13,19-triazatetracyclo [11.5.2.0^{5,7}.0^{16,20}] icosa-1(19),14,16(20), 17-tetraen-4-one], the IC50 was determined as 86 nM. For `COc1cc(C(=O)N2C[C@H](N)[C@@H]3CC[C@H]2C3)cc2nc(-c3cc4ccc5c(F)c4n3CC(F)(F)CCC[C@@H]3C[C@H]3C(=O)N[C@@H]5C)n(C)c12` [Example 437, (2~{R},5~{R},7~{R})-14-[5-[(1~{S},4~{R},5~{R})-4-amino-2-azabicyclo[3.2.1]octane-2-carbonyl]-7-methoxy-1-methyl-benzimidazol-2-yl]-11,11,19-trifluoro-2-methyl-3,13-diazatetracyclo[11.5.2.0^{5,7}.0^{16,20}] icosa-1(19),14,16(20),17-tetraen-4-one], the IC50 is 30 nM. The value for `C[C@H]1NC(=O)[C@H]2[C@H](CCCC(F)(F)Cn3c(-c4nc5cc(C(=O)N[C@H]6CNCC[C@@H]6F)c(F)cc5n4C4CC4)cc4ccc1nc43)C2(F)F` [Example 391, 1-cyclopropyl-6-fluoro-~{N}-[(3~{S},4~{S})-4-fluoro-3-piperidyl]-2-[(2~{R},5~{R},7~{S})-6,6,11,11-tetrafluoro-2-methyl-4-oxo-3,13,19-triazatetracyclo[11.5.2.0^{5,7}.0^{16,20}]icosa-1(19),14,16(20),17-tetraen-14-yl]benzimidazole-5-carboxamide] was 34 nM; that for `COc1cc(C(=O)N2CCC[C@@H](N)C2)cc2nc(-c3cc4ccc5nc4n3C[C@@H]3C[C@H]3COC[C@H](C)C(=O)N[C@@H]5C)n(C)c12` [Example 266, (5~{R},9~{S},12~{R})-18-[5-[(3~{R})-3-aminopiperidine-1-carbonyl]-7-methoxy-1-methyl-benzimidazol-2-yl]-9,12-dimethyl-7-oxa-1,11,20-triazatetracyclo[11.5.2.0^{3,5}.0^{16,19}] icosa-13(20),14,16(19),17-tetraen-10-one] was 153 nM.

With `C[C@H]1NC(=O)C(C)(C)CCCCCCn2c(-c3nc4cc(C(=O)N[C@H]5CNCC[C@@H]5F)c(F)cc4n3CC(F)F)cc3ccc1nc32` [Example 418, 1-(2,2-difluoroethyl)-6-fluoro-~{N}-[(3~{S},4~{S})-4-fluoro-3-piperidyl]-2-[(11~{R})-8,8,11-trimethyl-9-oxo-1,10,19-triazatricyclo[10.5.2.0^{15,18}]nonadeca-12(19),13,15(18),16-tetraen-17-yl]benzimidazole-5-carboxamide], the IC50 was 122 nM.

With `COc1cc(C(=O)N2CCC[C@@H](N)C2)cc2nc(-c3cc4ccc5nc4n3CCCCC[C@H](OC)C(C)(C)C(=O)N[C@@H]5C)n(C)c12` [Example 154, (7~{S},11~{R})-17-[5-[(3~{R})-3-aminopiperidine-1-carbonyl]-7-methoxy-1-methyl-benzimidazol-2-yl]-7-methoxy-8,8,11-trimethyl-1,10,19-triazatricyclo[10.5.2.0^{15,18}]nonadeca-12(19),13,15(18),16-tetraen-9-one], the half-maximal inhibitory concentration (IC50) came to 57 nM. The value for `COc1cc(C(=O)N2CCC[C@@H](N)C2)cc2nc(-c3cc4ccc5nc4n3C[C@@H]3C[C@H]3CCCC(C)C(=O)N[C@@H]5C)n(C)c12` (stereo partly drawn) [Example 272, (3~{R},5~{R},12~{R})-18-[5-[(3~{R})-3-aminopiperidine-1-carbonyl]-7-methoxy-1-methyl-benzimidazol-2-yl]-9,12-dimethyl-1,11,20-triazatetracyclo[11.5.2.0^{3,5}.0^{16,19}] icosa-13(20),14,16(19),17-tetraen-10-one] was 69 nM. On to `COc1cc(C(=O)N2[C@H]3CC[C@@H]2[C@H](N)C3)cc2nc(-c3cc4ccc5nc4n3CCCCC[C@H]3C[C@@H]3C(=O)N[C@@H]5C)n(C)c12` (single isomer, unassigned) [Example 224, (2˜{R},5˜{S},7˜{S})-14-[5-[(1˜{R},2˜{R},4˜{S})-2-amino-7-azabicyclo[2.2.1]heptane-7-carbonyl]-7-methoxy-1-methyl-benzimidazol-2-yl]-2-methyl-3,13,19-triazatetracyclo[11.5.2.0^{5,7}.0^{16,20}]icosa-1(19),14,16(20),17-tetraen-4-one], for which the IC50 turned out to be 57 nM. The value for `C[C@H]1NC(=O)c2ccc(Cl)nc2CCCCCn2c(-c3nc4cc(C(=O)N5C[C@H](N)C[C@@H](F)C5)cc(F)c4n3C3CC3)cc3ccc1nc32` [Example 791, (2~{R})-17-[5-[(3~{R},5~{R})-3-amino-5-fluoro-piperidine-1-carbonyl]-1-cyclopropyl-7-fluoro-benzimidazol-2-yl]-8-chloro-2-methyl-3,9,16,22-tetrazatetracyclo[14.5.2.0^ {5,10}.0^{19,23}]tricosa-1(21),5(10),6,8,17,19,22-heptaen-4-one] was 17 nM. Take `COc1cc(C(=O)N2CCC[C@@H](N)C2)cc2nc(-c3cc4ccc5nc4n3C[C@H]3C[C@H]3CCCC(C)(C)C(=O)N[C@@H]5C)n(C)c12` [Example 119, (3~{S},5~{R},12~{R})-18-[5-[(3~{R})-3-aminopiperidine-1-carbonyl]-7-methoxy-1-methyl-benzimidazol-2-yl]-9,9,12-trimethyl-1,11,20-triazatetracyclo[11.5.2.0^{3,5}.0^{16,19}] icosa-13(20),14,16(19),17-tetraen-10-one]: the IC50 amounted to 60 nM.
